Test results published in the supplement of paper PMC11061612.

How the values were obtained:
[1] = test system: CML-T1 (Chronic Myelogenous Leukemia); assay: Bliss excess, mean over the matrix (fraction); higher = more synergy
Summary of the method: (§1)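 After 24 hours at 37°C and 5% CO2 in 1536-well plates, cells in DMEM/F12 or RPMI plus 10% FBS received two-drug dose matrices for 72 hours. Viability came from CellTiter-Glo 2.0 luminescence and was scaled as inhibition, anchored at 0 by vehicle wells and at 1 by blank wells. Combination Emax is taken as the second-highest inhibition in the matrix, and Bliss excess as the observed combination effect less EA + EB − EA·EB, with EA and EB the single-agent effects.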

[2] = test system: RMG-I (Ovarian Carcinoma); assay: as above
Summary of the method: as §1

[3] = test system: NCI-H810 (Non-Small Cell Lung Carcinoma); assay: as above
Summary of the method: as §1

[4] = test system: OV-90 (Ovarian Carcinoma); assay: as above
Summary of the method: as §1

[5] = test system: PANC-02-03 (Pancreatic Carcinoma); assay: as above
Summary of the method: as §1

[6] = test system: SW684 (Other Solid Carcinomas); assay: as above
Summary of the method: as §1

[7] = test system: SK-MM-2 (Plasma Cell Myeloma); assay: as above
Summary of the method: as §1

[8] = test system: Becker (Low Grade Glioma); assay: as above
Summary of the method: as §1

[9] = test system: NKM-1 (Acute Myeloid Leukemia); assay: as above
Summary of the method: as §1

KYM-1 (Rhabdomyosarcoma) [10] = assay: as above
Summary of the method: as §1

[11] = test system: EB-3 (Burkitt's Lymphoma); assay: as above
Summary of the method: as §1

[12] = test system: COLO-684 (Endometrial Carcinoma); assay: as above
Summary of the method: as §1

[13] = test system: NCI-H1755 (Lung Adenocarcinoma); assay: as above
Summary of the method: as §1

CHL-1 (Melanoma) [14] = assay: as above
Summary of the method: as §1

[15] = test system: LOUCY (T-Lymphoblastic Leukemia); assay: as above
Summary of the method: as §1

[16] = test system: HCC-44 (Lung Adenocarcinoma); assay: as above
Summary of the method: as §1

[17] = test system: LAMA-84 (Chronic Myelogenous Leukemia); assay: as above
Summary of the method: as §1

[18] = test system: KYSE-70 (Esophageal Squamous Cell Carcinoma); assay: as above
Summary of the method: as §1

[19] = test system: PC-14 (Lung Adenocarcinoma); assay: as above
Summary of the method: as §1

[20] = test system: FLO-1 (Esophageal Adenocarcinoma); assay: as above
Summary of the method: as §1

[21] = test system: CML-T1 (Chronic Myelogenous Leukemia); assay: combination Emax (second highest fraction inhibited in the dose matrix, 72 h); higher = more inhibition; extreme values may be limits of the assay
Summary of the method: as §1

[22] = test system: RMG-I (Ovarian Carcinoma); assay: as above
Summary of the method: as §1

[23] = test system: NCI-H810 (Non-Small Cell Lung Carcinoma); assay: as above
Summary of the method: as §1

[24] = test system: OV-90 (Ovarian Carcinoma); assay: as above
Summary of the method: as §1

[25] = test system: PANC-02-03 (Pancreatic Carcinoma); assay: as above
Summary of the method: as §1

[26] = test system: SW684 (Other Solid Carcinomas); assay: as above
Summary of the method: as §1

[27] = test system: SK-MM-2 (Plasma Cell Myeloma); assay: as above
Summary of the method: as §1

[28] = test system: Becker (Low Grade Glioma); assay: as above
Summary of the method: as §1

[29] = test system: NKM-1 (Acute Myeloid Leukemia); assay: as above
Summary of the method: as §1

KYM-1 (Rhabdomyosarcoma) [30] = assay: as above
Summary of the method: as §1

[31] = test system: EB-3 (Burkitt's Lymphoma); assay: as above
Summary of the method: as §1

[32] = test system: COLO-684 (Endometrial Carcinoma); assay: as above
Summary of the method: as §1

[33] = test system: NCI-H1755 (Lung Adenocarcinoma); assay: as above
Summary of the method: as §1

CHL-1 (Melanoma) [34] = assay: as above
Summary of the method: as §1

[35] = test system: LOUCY (T-Lymphoblastic Leukemia); assay: as above
Summary of the method: as §1

[36] = test system: HCC-44 (Lung Adenocarcinoma); assay: as above
Summary of the method: as §1

[37] = test system: LAMA-84 (Chronic Myelogenous Leukemia); assay: as above
Summary of the method: as §1

[38] = test system: KYSE-70 (Esophageal Squamous Cell Carcinoma); assay: as above
Summary of the method: as §1

[39] = test system: PC-14 (Lung Adenocarcinoma); assay: as above
Summary of the method: as §1

[40] = test system: FLO-1 (Esophageal Adenocarcinoma); assay: as above
Summary of the method: as §1
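Wherever Bliss excess, mean over the matrix is given: after 72 h of two-drug dosing.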

| Structure (SMILES) | Bliss excess [1] | Bliss excess [2] | Bliss excess [3] | Bliss excess [4] | Bliss excess [5] | Bliss excess [6] | Bliss excess [7] | Bliss excess [8] | Bliss excess [9] | Bliss excess (KYM-1 (Rhabdomyosarcoma) [10]) | Bliss excess [11] | Bliss excess [12] | Bliss excess [13] | Bliss excess (CHL-1 (Melanoma) [14]) | Bliss excess [15] | Bliss excess [16] | Bliss excess [17] | Bliss excess [18] | Bliss excess [19] | Bliss excess [20] | combination Emax [21] | combination Emax [22] | combination Emax [23] | combination Emax [24] | combination Emax [25] | combination Emax [26] | combination Emax [27] | combination Emax [28] | combination Emax [29] | combination Emax (KYM-1 (Rhabdomyosarcoma) [30]) | combination Emax [31] | combination Emax [32] | combination Emax [33] | combination Emax (CHL-1 (Melanoma) [34]) | combination Emax [35] | combination Emax [36] | combination Emax [37] | combination Emax [38] | combination Emax [39] | combination Emax [40] |
| --- | --- | --- | --- | --- | --- | --- | --- | --- | --- | --- | --- | --- | --- | --- | --- | --- | --- | --- | --- | --- | --- | --- | --- | --- | --- | --- | --- | --- | --- | --- | --- | --- | --- | --- | --- | --- | --- | --- | --- | --- |
| C[C@@H](Nc1cc(F)cc(F)c1)c1cc(C(=O)N(C)C)cc2c(=O)cc(N3CCOCC3)oc12 [AZD8186] + CC(=O)c1c(C)c2cnc(Nc3ccc(N4CCNCC4)cn3)nc2n(C2CCCC2)c1=O [Palbociclib] (first compound max 10 µM, 7x7, partner max 10 µM) | -0.0045 | 0.0104 | -0.0224 | -0.0541 | -0.0157 | -0.0005 | 0.0299 | 0.127 | -0.0435 | -0.031 | 0.0129 | 0.0174 | 0.069 | 0.0104 | 0.187 | 0.0091 | 0.083 | -0.0106 | 0.0852 | 0.0479 | 0.931 | 0.497 | 0.371 | 0.137 | 0.343 | 0.503 | 0.35 | 0.628 | 0.83 | 0.702 | 0.399 | 0.729 | 0.602 | 0.458 | 0.504 | 0.728 | 0.554 | 0.355 | 0.469 | 0.599 |
| Cc1c2c(nn1C)CSCc1cc(n(C)n1)CSc1cc(c3ccccc3c1)OCCCc1c(C(=O)O)n(C)c3c-2c(Cl)ccc13 [AZD5991] + CS(=O)(=O)CCNCc1ccc(-c2ccc3ncnc(Nc4ccc(OCc5cccc(F)c5)c(Cl)c4)c3c2)o1 [Lapatinib] (first compound max 1 µM, 7x7, partner max 10 µM) | 0.0228 | 0.0088 | -0.0722 | -0.0817 | -0.0159 | -0.116 | -0.0011 | -0.0011 | -0.0148 | 0.0243 | -0.0068 | -0.114 | -0.015 | 0.0766 | 0.0351 | -0.0301 | 0.0258 | -0.0329 | 0.0203 | -0.0454 | 0.24 | 0.532 | 0.261 | 0.247 | 0.368 | 0.177 | 0.115 | 0.277 | 0.995 | 0.589 | 0.6 | 0.421 | 0.755 | 0.835 | 0.688 | 0.352 | 0.165 | 0.177 | 0.963 | 0.537 |
| C[C@@H](Oc1cc(-c2cnn(C3CCNCC3)c2)cnc1N)c1c(Cl)ccc(F)c1Cl [Crizotinib] + Cn1cnc2c(F)c(Nc3ccc(Br)cc3Cl)c(C(=O)NOCCO)cc21 [Selumetinib] (first compound max 10 µM, 7x7, partner max 10 µM) | -0.0165 | 0.0091 | -0.123 | 0.0569 | -0.0458 | -0.0262 | -0.0442 | 0.0409 | -0.0543 | -0.0202 | -0.0834 | -0.0629 | -0.006 | -0.0464 | -0.0249 | -0.0103 | 0.0176 | -0.0364 | -0.0183 | 0.031 | 0.957 | 0.59 | 0.212 | 0.742 | 0.713 | 0.39 | 0.377 | 0.661 | 0.906 | 0.92 | 0.625 | 0.452 | 0.983 | 0.0893 | 0.724 | 0.916 | 1 | 0.255 | 0.89 | 0.878 |
| C[C@@H]1COCCN1c1cc(C2([S@](C)(=N)=O)CC2)nc(-c2ccnc3[nH]ccc23)n1 [AZD6738] + C1CC(C1)(C(=O)[O-])C(=O)[O-].N.N.[Pt+2] [Carboplatin] (first compound max 10 µM, 7x7, partner max 10 µM) | -0.031 | -0.0502 | -0.116 | -0.0638 | -0.0433 | -0.0968 | -0.0045 | -0.0224 | -0.0102 | 0.0183 | -0.0876 | -0.0356 | -0.0571 | -0.0178 | 0.0054 | -0.0585 | -0.0368 | -0.0571 | -0.0164 | -0.0416 | 0.976 | 0.337 | 0.458 | 0.345 | 0.433 | 0.342 | 0.319 | 0.648 |  | 0.904 | 0.751 | 0.756 | 0.807 | 0.798 | 0.972 | 0.288 | 0.92 | 0.266 | 0.807 | 0.619 |
